Source: PubChem BioAssay AID1963977 (Molecular Pharmacology Branch, DTP, NCI, 2024)
Several values for one entry are separate records, joined by “and”; a condition that tells them apart may be missing. Equal entries are not always repeated.

Tested on: 624824-186-R-J3-PDC multicell spheroids, viability
Assay: Anticancer human tumor 624824-186-R-J3-PDC patient-derived colon adenocarcinoma cell line growth inhibition [PI3K]
Settings: for viability, T/C: stronger effect = lower value
Method in brief: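 Agents were dosed from a top concentration near clinical Cmax (otherwise 10 microM) in half-log decrements, alone or combined with PI3K inhibitors. The spheroids contain tumor cells plus endothelial (HUVEC) and MSC stroma; viability is measured.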

[1] = curve of first compound, second compound 0.00316 µM
[2] = curve of first compound, second compound 0.01 µM
[3] = curve of first compound, second compound 0.0316 µM
[4] = curve of first compound, second compound 0.1 µM
[5] = curve of first compound, second compound 0.316 µM
[6] = curve of first compound, second compound 1 µM
[7] = second compound 0.00316 µM, first compound 0.00316 µM
[8] = second compound 0.00316 µM, first compound 0.01 µM
[9] = second compound 0.00316 µM, first compound 0.0316 µM
[10] = second compound 0.00316 µM, first compound 0.1 µM
[11] = second compound 0.01 µM, first compound 0.00316 µM
[12] = second compound 0.01 µM, first compound 0.01 µM
[13] = second compound 0.01 µM, first compound 0.0316 µM
[14] = second compound 0.01 µM, first compound 0.1 µM
[15] = second compound 0.0316 µM, first compound 0.00316 µM
[16] = second compound 0.0316 µM, first compound 0.01 µM
[17] = second compound 0.0316 µM, first compound 0.0316 µM
[18] = second compound 0.0316 µM, first compound 0.1 µM
[19] = second compound 0.1 µM, first compound 0.00316 µM
[20] = second compound 0.1 µM, first compound 0.01 µM
[21] = second compound 0.1 µM, first compound 0.0316 µM
[22] = second compound 0.1 µM, first compound 0.1 µM
[23] = second compound 0.316 µM, first compound 0.00316 µM
[24] = second compound 0.316 µM, first compound 0.01 µM
[25] = second compound 0.316 µM, first compound 0.0316 µM
[26] = second compound 0.316 µM, first compound 0.1 µM
[27] = second compound 1 µM, first compound 0.00316 µM
[28] = second compound 1 µM, first compound 0.01 µM
[29] = second compound 1 µM, first compound 0.0316 µM
[30] = second compound 1 µM, first compound 0.1 µM
[31] = second compound 0.00316 µM, first compound 0.316 µM
[32] = second compound 0.00316 µM, first compound 1 µM
[33] = second compound 0.01 µM, first compound 0.316 µM
[34] = second compound 0.01 µM, first compound 1 µM
[35] = second compound 0.0316 µM, first compound 0.316 µM
[36] = second compound 0.0316 µM, first compound 1 µM
[37] = second compound 0.1 µM, first compound 0.316 µM
[38] = second compound 0.1 µM, first compound 1 µM
[39] = second compound 0.316 µM, first compound 0.316 µM
[40] = second compound 0.316 µM, first compound 1 µM
[41] = second compound 1 µM, first compound 0.316 µM
[42] = second compound 1 µM, first compound 1 µM
[43] = second compound 0.00316 µM, first compound 3.16 µM
[44] = second compound 0.00316 µM, first compound 10 µM
[45] = second compound 0.01 µM, first compound 3.16 µM
[46] = second compound 0.01 µM, first compound 10 µM
[47] = second compound 0.0316 µM, first compound 3.16 µM
[48] = second compound 0.0316 µM, first compound 10 µM
[49] = second compound 0.1 µM, first compound 3.16 µM
[50] = second compound 0.1 µM, first compound 10 µM
[51] = second compound 0.316 µM, first compound 3.16 µM
[52] = second compound 0.316 µM, first compound 10 µM
[53] = second compound 1 µM, first compound 3.16 µM
[54] = second compound 1 µM, first compound 10 µM
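Also: spheroids exposed to agents for seven days before luminescence read.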
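For viability, T/C in this document: luminescent signal used as a stand-in for spheroid viability; percent viability relative to DMSO vehicle control wells taken as 100%.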

CC(=O)c1c(C)c2cnc(Nc3ccc(N4CCNCC4)cn3)nc2n(C2CCCC2)c1=O + COc1c(OCCCN2CCOCC2)ccc2c3n(c(=NC(=O)c4cnc(N)nc4)nc12)CCN3
IC50 [1]: > 100 nM
IC50 [2]: > 100 nM
IC50 [3]: > 100 nM
IC50 [4]: 93 nM
IC50 [5]: 0.852 nM
IC50 [6]: < 0.316 nM
viability, T/C (second compound 0.00316 µM, first compound 0.000316 µM): 99.3%
viability, T/C (second compound 0.00316 µM, first compound 0.001 µM): 97.3%
viability, T/C [7]: 107%
viability, T/C [8]: 96.7%
viability, T/C [9]: 93%
viability, T/C [10]: 108%
viability, T/C (second compound 0.01 µM, first compound 0.000316 µM): 104%
viability, T/C (second compound 0.01 µM, first compound 0.001 µM): 103%
viability, T/C [11]: 104%
viability, T/C [12]: 105%
viability, T/C [13]: 98.8%
viability, T/C [14]: 116%
viability, T/C (second compound 0.0316 µM, first compound 0.000316 µM): 90.9%
viability, T/C (second compound 0.0316 µM, first compound 0.001 µM): 106%
viability, T/C [15]: 86.6%
viability, T/C [16]: 87.3%
viability, T/C [17]: 93.7%
viability, T/C [18]: 80.4%
viability, T/C (second compound 0.1 µM, first compound 0.000316 µM): 75.1%
viability, T/C (second compound 0.1 µM, first compound 0.001 µM): 75.8%
viability, T/C [19]: 74.4%
viability, T/C [20]: 74%
viability, T/C [21]: 70.5%
viability, T/C [22]: 48.6%
viability, T/C (second compound 0.316 µM, first compound 0.000316 µM): 52.9%
viability, T/C (second compound 0.316 µM, first compound 0.001 µM): 46.5%
viability, T/C [23]: 49.9%
viability, T/C [24]: 40.2%
viability, T/C [25]: 35.6%
viability, T/C [26]: 26.4%
viability, T/C (second compound 1 µM, first compound 0.000316 µM): 27.6%
viability, T/C (second compound 1 µM, first compound 0.001 µM): 32%
viability, T/C [27]: 28.3%
viability, T/C [28]: 26.7%
viability, T/C [29]: 21.5%
viability, T/C [30]: 19.7%

CCN1CCN(Cc2ccc(Nc3ncc(F)c(-c4cc(F)c5nc(C)n(C(C)C)c5c4)n3)nc2)CC1 + COc1c(OCCCN2CCOCC2)ccc2c3n(c(=NC(=O)c4cnc(N)nc4)nc12)CCN3
IC50 [1]: > 1000 nM
IC50 [2]: > 1000 nM
IC50 [3]: > 1000 nM
IC50 [4]: 59.7 nM
IC50 [5]: < 3.16 nM
IC50 [6]: < 3.16 nM
viability, T/C [7]: 99%
viability, T/C [8]: 107%
viability, T/C [9]: 104%
viability, T/C [10]: 116%
viability, T/C [31]: 107%
viability, T/C [32]: 94.8%
viability, T/C [11]: 99.2%
viability, T/C [12]: 94.9%
viability, T/C [13]: 99.7%
viability, T/C [14]: 95.2%
viability, T/C [33]: 76.5%
viability, T/C [34]: 74.7%
viability, T/C [15]: 99%
viability, T/C [16]: 99.1%
viability, T/C [17]: 88.3%
viability, T/C [18]: 68.5%
viability, T/C [35]: 57.5%
viability, T/C [36]: 61.5%
viability, T/C [19]: 81%
viability, T/C [20]: 73.2%
viability, T/C [21]: 57.5%
viability, T/C [22]: 40.8%
viability, T/C [37]: 40.7%
viability, T/C [38]: 50.5%
viability, T/C [23]: 48.4%
viability, T/C [24]: 41.7%
viability, T/C [25]: 41.5%
viability, T/C [26]: 27.4%
viability, T/C [39]: 41.7%
viability, T/C [40]: 52.4%
viability, T/C [27]: 27.7%
viability, T/C [28]: 32.4%
viability, T/C [29]: 23.4%
viability, T/C [30]: 24.3%
viability, T/C [41]: 34.9%
viability, T/C [42]: 54.8%

CC1(C)CCC(Nc2ncc(C(F)(F)F)c(-c3c[nH]c4c(P(C)(C)=O)c(C#N)ccc34)n2)CN1 (stereo not given) + COc1c(OCCCN2CCOCC2)ccc2c3n(c(=NC(=O)c4cnc(N)nc4)nc12)CCN3
IC50 [1]: 5420 nM
IC50 [2]: 5060 nM
IC50 [3]: 3600 nM
IC50 [4]: < 31.6 nM
IC50 [5]: < 31.6 nM
IC50 [6]: < 31.6 nM
viability, T/C [9]: 103%
viability, T/C [10]: 84.7%
viability, T/C [31]: 87.1%
viability, T/C [32]: 85%
viability, T/C [43]: 95.1%
viability, T/C [44]: 3.27%
viability, T/C [13]: 90.8%
viability, T/C [14]: 72.4%
viability, T/C [33]: 76.6%
viability, T/C [34]: 81.7%
viability, T/C [45]: 89.5%
viability, T/C [46]: 3.28%
viability, T/C [17]: 59.7%
viability, T/C [18]: 55.2%
viability, T/C [35]: 54.9%
viability, T/C [36]: 60.6%
viability, T/C [47]: 55.9%
viability, T/C [48]: 2.59%
viability, T/C [21]: 41.8%
viability, T/C [22]: 36.6%
viability, T/C [37]: 40.8%
viability, T/C [38]: 38.2%
viability, T/C [49]: 37.9%
viability, T/C [50]: 1.87%
viability, T/C [25]: 28.5%
viability, T/C [26]: 30.3%
viability, T/C [39]: 28.9%
viability, T/C [40]: 24.8%
viability, T/C [51]: 24.7%
viability, T/C [52]: 1.42%
viability, T/C [29]: 19.4%
viability, T/C [30]: 18.4%
viability, T/C [41]: 19%
viability, T/C [42]: 18.1%
viability, T/C [53]: 18%
viability, T/C [54]: 1.68%

CCN1CCN(Cc2ccc(Nc3ncc(F)c(-c4cc(F)c5nc(C)n(C(C)C)c5c4)n3)nc2)CC1
viability, T/C (compound 0.00316 µM): 108% (2×) and 105% and 107%
viability, T/C (compound 0.01 µM): 106% [middle of 4 runs]
viability, T/C (compound 0.0316 µM): 112% (2×) and 105% and 115%
viability, T/C (compound 0.1 µM): 107% [middle of 4 runs]
viability, T/C (compound 0.316 µM): 104% [middle of 4 runs]
viability, T/C (compound 1 µM): 104% [middle of 4 runs]
IC50 (curve of compound): > 1000 nM

CCCS(=O)(=O)Nc1ccc(F)c(C(=O)c2c[nH]c3ncc(-c4ccc(Cl)cc4)cc23)c1F + COc1c(OCCCN2CCOCC2)ccc2c3n(c(=NC(=O)c4cnc(N)nc4)nc12)CCN3
IC50 [1]: 5310 nM
IC50 [2]: 3710 nM
IC50 [3]: 1870 nM
IC50 [4]: 331 nM
IC50 [5]: < 31.6 nM
IC50 [6]: < 31.6 nM
viability, T/C [9]: 87.3%
viability, T/C [10]: 103%
viability, T/C [31]: 114%
viability, T/C [32]: 96.9%
viability, T/C [43]: 82.5%
viability, T/C [44]: 10.3%
viability, T/C [13]: 102%
viability, T/C [14]: 102%
viability, T/C [33]: 84.8%
viability, T/C [34]: 74.8%
viability, T/C [45]: 61.5%
viability, T/C [46]: 13.6%
viability, T/C [17]: 95.7%
viability, T/C [18]: 86.3%
viability, T/C [35]: 65.4%
viability, T/C [36]: 67%
viability, T/C [47]: 42.6%
viability, T/C [48]: 16.1%
viability, T/C [21]: 74.7%
viability, T/C [22]: 66%
viability, T/C [37]: 46.4%
viability, T/C [38]: 37.7%
viability, T/C [49]: 27.5%
viability, T/C [50]: 9.08%
viability, T/C [25]: 44%
viability, T/C [26]: 37.5%
viability, T/C [39]: 31.8%
viability, T/C [40]: 24.1%
viability, T/C [51]: 17.2%
viability, T/C [52]: 8.93%
viability, T/C [29]: 29%
viability, T/C [30]: 27.1%
viability, T/C [41]: 20.4%
viability, T/C [42]: 17.2%
viability, T/C [53]: 12.5%
viability, T/C [54]: 6.57%
